Reference: patent publication US7608619B2, “Substituted oxazole compounds with analgesic activity” (Gruenenthal GmbH, priority 2005, dated 2009)

Molecular target: T1, human μ-opiate receptor (Homo sapiens, UniProt P35372)
T1 construct: purchased Nen company, Zaventem, Belgium RB-HOM; host or cells: CHO-K1 cells (membrane preparation)
Experiment: Affinity for the human μ-opiate receptor ([3H]-naloxone displacement, SPA, CHO-K1 membrane preparation)
Settings: test substance 1 μmole/l; displacement of 1 nmole/l [3H]-naloxone; percentage inhibition of the specific binding; read-out: μ-opioid receptor, % inhibition [1 μM]
In short: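 [3H]-naloxone (1 nmol/l) displacement by SPA with WGA beads, using membranes of CHO-K1 cells expressing the receptor, in 50 mmol/l Tris-HCl with 0.05% azide and 0.06% BSA; 90 min at room temperature. Non-specific binding defined with 25 μmol/l naloxone. Value is % inhibition of specific binding at 1 μmol/l test compound.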

T1 sequence (P35372 whole entry): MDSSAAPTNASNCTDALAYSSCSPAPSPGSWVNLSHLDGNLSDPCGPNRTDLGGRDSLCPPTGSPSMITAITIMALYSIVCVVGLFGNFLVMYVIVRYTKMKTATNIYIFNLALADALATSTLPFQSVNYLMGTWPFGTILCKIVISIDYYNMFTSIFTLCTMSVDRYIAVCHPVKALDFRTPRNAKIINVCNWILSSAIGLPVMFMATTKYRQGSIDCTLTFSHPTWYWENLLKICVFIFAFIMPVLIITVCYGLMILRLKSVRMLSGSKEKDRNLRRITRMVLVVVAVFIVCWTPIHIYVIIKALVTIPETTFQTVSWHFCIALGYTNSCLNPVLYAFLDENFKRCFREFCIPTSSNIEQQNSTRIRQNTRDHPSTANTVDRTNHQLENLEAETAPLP

| Structure (SMILES) | inhibition at 1 µM [%] |
| --- | --- |
| CC1CCN(c2oc(C(CC3CCC(C(c4ccc(F)cc4)N(C)C)CC3)N3CCCCC3)nc2Cc2ccccc2)CC1 (stereo not shown) [compound 65, [(4-{2-[4-benzyl-5-(4-methylpiperidin-1-yl)-oxazol-2-yl]-2-piperidin-1-yl-ethyl}-cyclohexyl)-(4-fluorophenyl)-methyl]-dimethylamine] | 61 |
| CCN(CC)c1oc(C(C2CCC(C(c3ccc(Cl)cc3)N(C)C)CC2)N2CCN(Cc3ccccc3)CC2)nc1Cc1ccccc1 (stereo not shown) [compound 44, [4-benzyl-2-((4-benzylpiperazin-1-yl)-{4-[(4-chlorophenyl)-dimethylaminomethyl]-cyclohexyl}-methyl)-oxazol-5-yl]-diethylamine] | 67 |
| CC1CCN(c2oc(C(CC3CCC(C(c4ccc(Cl)cc4)N(C)C)CC3)N3CCCCC3)nc2Cc2ccccc2)CC1 (stereo not shown) [compound 57, [(4-{2-[4-benzyl-5-(4-methylpiperidin-1-yl)-oxazol-2-yl]-2-piperidin-1-yl-ethyl}-cyclohexyl)-(4-chlorophenyl)-methyl]-dimethylamine] | 64 |
| CN(C)C(c1cccc(F)c1)C1CCC(CC(c2nc(Cc3ccccc3)c(N3CCOCC3)o2)N2CCOCC2)CC1 (stereo not shown) [compound 150, [{4-[2-(4-benzyl-5-morpholin-4-yl-oxazol-2-yl)-2-morpholin-4-yl-ethyl]-cyclohexyl}-(3-fluorophenyl)-methyl]-dimethylamine] | 75 |
| CCN(CC)C(CC1CCC(C(c2ccc(F)cc2)N(C)C)CC1)c1nc(Cc2ccccc2)c(N2CCC(Cc3ccccc3)CC2)o1 (stereo not shown) [compound 67, (1-[4-benzyl-5-(4-benzyl-piperidin-1-yl)-oxazol-2-yl]-2-{4-[dimethylamino-(4-fluorophenyl)-methyl]-cyclohexyl}-ethyl)-diethylamine] | 64 |
| CC1CCN(c2oc(C(CC3CCC(C(c4ccc(F)cc4)N(C)C)CC3)N3CCN(Cc4ccccc4)CC3)nc2Cc2ccccc2)CC1 (stereo not shown) [compound 71, [{4-[2-[4-benzyl-5-(4-methylpiperidin-1-yl)-oxazol-2-yl]-2-(4-benzyl-piperazin-1-yl)-ethyl]-cyclohexyl}-(4-fluorophenyl)-methyl]-dimethylamine] | 67 |
| CCN(CC)C(CC1CCC(C(c2ccc(F)cc2)N(C)C)CC1)c1nc(Cc2ccccc2)c(N2CCN(Cc3ccccc3)CC2)o1 (stereo not shown) [compound 68, (1-[4-benzyl-5-(4-benzyl-piperazin-1-yl)-oxazol-2-yl]-2-{4-[dimethylamino-(4-fluorophenyl)-methyl]-cyclohexyl}-ethyl)-diethylamine] | 60 |
